Results taken from ChEMBL document CHEMBL1201862, “PubChem BioAssay data set” (2004).
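These data come from cells grown in 96-well plates and exposed to compound for 48 hours at five concentrations. Abbreviation: GI50, concentration required for 50% inhibition of growth.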 Activity calls are given as the source filed them. No stated cut-off is given here; in the data, active = GI50 up to about 1.1 µM and inactive = higher.

Assays:
Assay in all cases: growth of human tumour cells (NCI), 48 h
[1] = tested on: SNB-19
[2] = tested on: RPMI-8226
[3] = tested on: CAKI-1
[4] = tested on: SR
[5] = tested on: K562
[6] = tested on: TK-10
[7] = tested on: EKVX
[8] = tested on: OVCAR-4
[9] = tested on: DU-145
[10] = tested on: HCC 2998
[11] = tested on: HOP-62
[12] = tested on: 786-0
[13] = tested on: MDA-N
[14] = tested on: BT-549
[15] = tested on: HT-29
[16] = tested on: Malme-3M
[17] = tested on: SN12C
[18] = tested on: UO-31
[19] = tested on: RXF 393
[20] = tested on: SK-MEL-5
[21] = tested on: MOLT-4
[22] = tested on: HCT-15
[23] = tested on: M14
[24] = tested on: OVCAR-8
[25] = tested on: KM12
[26] = tested on: CCRF-CEM
[27] = tested on: HOP-92
[28] = tested on: NCI-H522
[29] = tested on: OVCAR-3
[30] = tested on: NCI-H23
[31] = tested on: SK-OV-3
[32] = tested on: SNB-75
[33] = tested on: UACC-257
[34] = tested on: ACHN
[35] = tested on: NCI-H460
[36] = tested on: HCT-116
[37] = tested on: U-251
[38] = tested on: SK-MEL-28
[39] = tested on: SW-620
[40] = tested on: MDA-MB-231
[41] = tested on: COLO 205
[42] = tested on: PC-3
[43] = tested on: NCI/ADR-RES
[44] = tested on: OVCAR-5
[45] = tested on: UACC-62
[46] = tested on: T47D
[47] = tested on: MCF7
[48] = tested on: SK-MEL-2
[49] = tested on: SF-295
[50] = tested on: A549
[51] = tested on: MDA-MB-435
[52] = tested on: LOX IMVI
[53] = tested on: A498
[54] = tested on: Hs-578T
[55] = tested on: IGROV-1
[56] = tested on: NCI-H226
[57] = tested on: SF-268
[58] = tested on: SF-539

`CCCNC(=O)c1cc(NC(=O)c2cc(NC(=O)CCS(=O)(=O)OC)cn2C)cn1C` was tested, and the GI50 [1] was 2.21 µM (inactive), the GI50 [2] was > 100 µM (inactive) and the GI50 [3] was > 52 µM (inactive). The GI50 [4] was > 100 µM (inactive), the GI50 [5] was 5.2 µM (inactive) and the GI50 [6] was 67.5 µM (inactive). The GI50 [7] was 51.1 µM (inactive), the GI50 [8] was 26.5 µM (inactive) and the GI50 [9] was 24.2 µM (inactive). The GI50 [10] was 43.5 µM (inactive), the GI50 [11] was 25.8 µM (inactive) and the GI50 [12] was 23.7 µM (inactive). For the same compound, the GI50 [13] was 20.9 µM (inactive), the GI50 [14] was 3.68 µM (inactive) and the GI50 [15] was 22 µM (inactive). The GI50 [16] was 8.41 µM (inactive), the GI50 [17] was 13.8 µM (inactive) and the GI50 [18] was > 100 µM (inactive). The GI50 [19] was 14.4 µM (inactive), the GI50 [20] was 17.1 µM (inactive) and the GI50 [21] was 17.5 µM (inactive). For the same compound, the GI50 [22] was > 100 µM, the GI50 [23] was 28.6 µM (inactive) and the GI50 [24] was 15.2 µM (inactive). The GI50 [25] was 21.9 µM (inactive), the GI50 [26] was 0.902 µM (active) and the GI50 [27] was 3.76 µM (inactive). The GI50 [28] was 1.87 µM (inactive), the GI50 [29] was 10.4 µM (inactive) and the GI50 [30] was 17.4 µM (inactive). For the same compound, the GI50 [31] was 9.55 µM (inactive), the GI50 [32] was 20.6 µM (inactive) and the GI50 [33] was 24 µM (inactive). The GI50 [34] was 52.4 µM (inactive), the GI50 [35] was > 100 µM (inactive) and the GI50 [36] was 12.8 µM (inactive). The GI50 [37] was 6.62 µM (inactive), the GI50 [38] was 33.3 µM (inactive) and the GI50 [39] was 6.27 µM (inactive). The GI50 [40] was 33.8 µM (inactive), the GI50 [41] was 6.64 µM (inactive) and the GI50 [42] was 10.2 µM (inactive). The GI50 [43] was > 100 µM (inactive), the GI50 [44] was 40.9 µM (inactive) and the GI50 [45] was 19.8 µM (inactive). For the same compound, the GI50 [46] was 5.11 µM (inactive), the GI50 [47] was 20.5 µM (inactive) and the GI50 [48] was 18.3 µM (inactive). For the same compound, the GI50 [49] was > 69.8 µM (inactive), the GI50 [50] was > 91 µM (inactive) and the GI50 [51] was 19.1 µM (inactive). The GI50 [52] was 14.6 µM (inactive), the GI50 [53] was > 69.3 µM (inactive) and the GI50 [54] was 32.7 µM (inactive). The GI50 [55] was 15 µM (inactive).

In the case of `CC(=O)C(C(=N)C#N)C(=O)Nc1ccccc1` (stereo unspecified), the GI50 [1] is reported as > 100 µM (inactive), the GI50 [2] is reported as > 100 µM (inactive) and the GI50 [3] is reported as > 100 µM (inactive). For the same compound, the GI50 [56] was > 100 µM (inactive), the GI50 [4] was > 100 µM (inactive) and the GI50 [5] was > 100 µM (inactive). For the same compound, the GI50 [6] was > 100 µM (inactive), the GI50 [7] was > 100 µM (inactive) and the GI50 [8] was > 100 µM (inactive). The GI50 [9] was > 100 µM (inactive), the GI50 [11] was > 100 µM (inactive) and the GI50 [12] was > 100 µM (inactive). For the same compound, the GI50 [13] was > 100 µM (inactive), the GI50 [14] was > 100 µM (inactive) and the GI50 [15] was > 100 µM (inactive). For the same compound, the GI50 [16] was > 100 µM (inactive), the GI50 [17] was > 100 µM (inactive) and the GI50 [19] was > 100 µM (inactive). The GI50 [57] was > 100 µM (inactive), the GI50 [20] was > 100 µM (inactive) and the GI50 [21] was > 100 µM (inactive). For the same compound, the GI50 [22] was > 100 µM, the GI50 [23] was > 100 µM (inactive) and the GI50 [24] was > 100 µM (inactive). For the same compound, the GI50 [25] was > 100 µM (inactive), the GI50 [26] was > 100 µM (inactive) and the GI50 [27] was > 100 µM (inactive). For the same compound, the GI50 [28] was > 100 µM (inactive), the GI50 [29] was > 100 µM (inactive) and the GI50 [58] was > 100 µM (inactive). For the same compound, the GI50 [30] was > 100 µM (inactive), the GI50 [31] was > 100 µM (inactive) and the GI50 [32] was > 100 µM (inactive). For the same compound, the GI50 [33] was > 100 µM (inactive), the GI50 [34] was > 100 µM (inactive) and the GI50 [35] was > 100 µM (inactive). The GI50 [36] was > 100 µM (inactive), the GI50 [37] was > 100 µM (inactive) and the GI50 [38] was > 100 µM (inactive). The GI50 [39] was > 100 µM (inactive), the GI50 [40] was > 100 µM (inactive) and the GI50 [41] was > 100 µM (inactive). The GI50 [42] was > 100 µM (inactive), the GI50 [43] was > 100 µM (inactive) and the GI50 [44] was > 100 µM (inactive). The GI50 [45] was > 100 µM (inactive), the GI50 [46] was > 100 µM (inactive) and the GI50 [47] was > 100 µM (inactive). For the same compound, the GI50 [48] was > 100 µM (inactive), the GI50 [49] was > 100 µM (inactive) and the GI50 [50] was > 100 µM (inactive). The GI50 [51] was > 100 µM (inactive), the GI50 [52] was > 100 µM (inactive) and the GI50 [53] was > 100 µM (inactive). The GI50 [54] was 44.9 µM (inactive) and the GI50 [55] was > 100 µM (inactive).
